Assay results as given in patent publication US5922723A, “Pharmaceutical compositions for prevention and treatment of central nervous system disorders” (priority 1996, dated 1999).
Where a name gives a salt, the structure may show the parent alone.

What was measured:
[1] = biological target: T1, ganglionic-type neuronal nicotinic receptors (rat pheochromocytoma clonal line PC12) (Rattus norvegicus, UniProt P04757+P12392); type: cell-based; settings: for Ganglion Effect: pc12 cells; for effects at ganglionic sites (in words): summary of Table I
T1 construct: tumor of the rat adrenal medulla expressing ganglionic-typeneuronal nicotinic receptors; endogenous in cells; host or cells: PC12 (rat pheochromocytoma clonal line), intact cells
T1 sequence (P04757 26-499): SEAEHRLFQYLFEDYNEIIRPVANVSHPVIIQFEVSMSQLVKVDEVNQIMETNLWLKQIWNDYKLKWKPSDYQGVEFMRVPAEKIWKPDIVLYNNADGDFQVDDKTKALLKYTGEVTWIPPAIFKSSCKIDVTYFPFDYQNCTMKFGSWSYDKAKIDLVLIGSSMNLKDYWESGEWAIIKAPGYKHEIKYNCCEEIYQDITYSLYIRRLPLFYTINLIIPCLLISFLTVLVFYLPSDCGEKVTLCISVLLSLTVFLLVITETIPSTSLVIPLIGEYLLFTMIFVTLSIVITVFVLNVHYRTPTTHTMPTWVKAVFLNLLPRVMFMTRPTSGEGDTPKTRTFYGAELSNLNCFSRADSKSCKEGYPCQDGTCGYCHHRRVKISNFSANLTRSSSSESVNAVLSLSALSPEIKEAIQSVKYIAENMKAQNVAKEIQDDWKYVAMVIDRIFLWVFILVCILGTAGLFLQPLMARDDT
T1 sequence (P12392 21-495): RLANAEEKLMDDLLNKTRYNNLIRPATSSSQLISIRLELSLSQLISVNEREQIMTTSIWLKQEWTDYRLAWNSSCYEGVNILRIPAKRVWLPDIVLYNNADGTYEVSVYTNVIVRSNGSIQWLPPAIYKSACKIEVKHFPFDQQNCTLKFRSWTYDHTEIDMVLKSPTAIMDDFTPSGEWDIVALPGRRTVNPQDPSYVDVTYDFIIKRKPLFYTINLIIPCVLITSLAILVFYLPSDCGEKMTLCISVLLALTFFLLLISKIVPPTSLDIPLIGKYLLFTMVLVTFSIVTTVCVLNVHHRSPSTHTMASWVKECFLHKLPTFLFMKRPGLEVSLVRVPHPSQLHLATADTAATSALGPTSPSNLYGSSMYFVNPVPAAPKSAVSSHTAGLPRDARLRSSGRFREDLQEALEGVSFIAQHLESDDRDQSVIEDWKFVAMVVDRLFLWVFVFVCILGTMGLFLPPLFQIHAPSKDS

[2] = biological target: T2, muscle-like nicotinic receptors (human clonal line TE671/RD) (Homo sapiens, UniProt P02708+P07510+Q07001); type: cell-based; settings: for effects at muscle sites (in words): summary of Table I; for Muscle Effect: te671/rd cells
T2 construct: these cells express muscle-like nicotinic receptors; endogenous in cells; host or cells: TE671/RD (human embryonal rhabdomyosarcoma clonal line), intact cells
T2 sequence (P02708 21-457): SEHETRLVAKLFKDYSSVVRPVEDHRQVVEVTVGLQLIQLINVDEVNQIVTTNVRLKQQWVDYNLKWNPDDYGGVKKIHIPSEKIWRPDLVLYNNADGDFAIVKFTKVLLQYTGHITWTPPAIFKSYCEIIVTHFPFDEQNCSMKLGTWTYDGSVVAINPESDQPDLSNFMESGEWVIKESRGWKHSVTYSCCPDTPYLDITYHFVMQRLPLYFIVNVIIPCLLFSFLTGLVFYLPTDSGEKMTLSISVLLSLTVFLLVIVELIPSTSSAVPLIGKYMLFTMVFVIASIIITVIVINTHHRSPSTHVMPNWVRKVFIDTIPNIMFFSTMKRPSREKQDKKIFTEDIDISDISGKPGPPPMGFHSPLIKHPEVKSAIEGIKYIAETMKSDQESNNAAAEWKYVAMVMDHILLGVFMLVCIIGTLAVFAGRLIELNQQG
T2 sequence (Q07001 22-517): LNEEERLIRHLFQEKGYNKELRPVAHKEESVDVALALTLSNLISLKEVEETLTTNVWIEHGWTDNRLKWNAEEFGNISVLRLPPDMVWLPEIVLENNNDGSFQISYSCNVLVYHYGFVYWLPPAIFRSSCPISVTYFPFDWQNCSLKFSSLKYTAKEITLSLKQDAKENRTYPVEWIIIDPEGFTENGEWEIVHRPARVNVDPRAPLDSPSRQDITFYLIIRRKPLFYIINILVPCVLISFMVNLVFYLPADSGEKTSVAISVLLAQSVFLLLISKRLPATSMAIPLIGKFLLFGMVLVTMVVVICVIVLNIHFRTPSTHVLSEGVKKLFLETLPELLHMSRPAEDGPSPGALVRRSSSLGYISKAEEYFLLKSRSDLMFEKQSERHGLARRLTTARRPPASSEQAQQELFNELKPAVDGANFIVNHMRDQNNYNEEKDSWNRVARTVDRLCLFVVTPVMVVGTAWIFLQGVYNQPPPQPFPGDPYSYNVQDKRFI
T2 sequence (P07510 23-517): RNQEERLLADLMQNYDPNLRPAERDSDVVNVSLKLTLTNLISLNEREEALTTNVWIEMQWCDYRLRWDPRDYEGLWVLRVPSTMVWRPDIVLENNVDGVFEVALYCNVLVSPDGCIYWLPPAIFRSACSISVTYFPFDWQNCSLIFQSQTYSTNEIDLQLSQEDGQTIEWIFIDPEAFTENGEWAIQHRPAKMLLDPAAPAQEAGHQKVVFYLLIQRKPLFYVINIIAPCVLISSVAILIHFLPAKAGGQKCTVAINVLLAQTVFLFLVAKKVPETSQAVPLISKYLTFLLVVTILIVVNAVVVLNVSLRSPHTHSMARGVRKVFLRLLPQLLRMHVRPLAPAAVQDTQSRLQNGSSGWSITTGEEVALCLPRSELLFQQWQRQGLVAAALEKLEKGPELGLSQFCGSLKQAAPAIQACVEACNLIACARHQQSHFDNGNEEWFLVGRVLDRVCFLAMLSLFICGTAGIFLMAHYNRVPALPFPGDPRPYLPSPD
Description: Discussion concerning the heterogeneity of nicotinic receptors subtypes is set forth in Lukas et al., Internatl. […] Acetylcholine nicotinic receptors expressed in rat ganglia share a very high degree of homology with their human counterparts. See, Fornasari et al., Neurosci. […] Intact cells on dishes were used for functional studies.
Specific ion efflux was determined as the difference in isotope efflux between total and non-specific efflux samples.

[3] = system: synaptosomes from the striatal area of rat brain (dopamine release); assay: Dopamine release from synaptosomes of the striatal area of rat brain; type: biochemical, rat (Sprague-Dawley); settings: for EC50: [3H]-dopamine; for dopamine release (in words): summary of Table I
Description: Striata from 4 rats were homogenized in 2 ml of 0.32 M sucrose buffered with 5 mM HEPES (pH 7.5), using a glass-Teflon tissue grinder. The homogenate was diluted to 5 ml with additional homogenization solution and centrifuged at 1,000× g for 10 min. This procedure was repeated on the new pellet and the resulting supernatant was centrifuged at 12,000× g for 20 min. A 3 layer discontinuous Percoll gradient consisting of 16 percent, 10 percent and 7.5 percent Percoll in HEPES-buffered sucrose was made with the final pellet dispersed in the top layer. […] The new pellet was collected and re-suspended in perfusion buffer. The synaptosome suspension was incubated for 10 min. at 37° C. [^3 H]-Dopamine (Amersham, 40-60 Ci/mmol) was added to the suspension to give a final concentration of 0.1 uM, and the suspension was incubated for another 5 min. […] A continuous perfusion system was used to monitor release following exposure to each ligand. Synaptosomes were loaded onto glass fiber filters (Gelman type A/E). Perfusion buffer was dripped onto the filters (0.2-0.3 ml/min.) and pulled through the filters with a peristaltic pump. Synaptosomes were washed with perfusion buffer for a minimum of 20 min. before addition of the ligand. After the addition of 0.2 ml of a solution containing various concentrations of ligand, the perfusate was collected into scintillation vials at 1 min. intervals and the dopamine released was quantified by scintillation counting. Peaks of radioactivity released above background were summed and the average basal release during that time was subtracted from the total.

CNS nicotinic receptors = assay: Inhibition of L-[3H]nicotine binding to rat brain membrane preparations; parameters: species or system rat (Sprague-Dawley); settings: for Ki: 10 nM L-[3H]nicotine, 2 hr at 4° C., rat brain membranes, calculated from IC50 (Cheng et al.); for binding to CNS nicotinic receptors (in words): summary of Table I
Description: Rats (Sprague-Dawley) were maintained on a 12 hour light/dark cycle and were allowed free access to water and food supplied by Wayne Lab Blox, Madison, Wis. Animals used in the present studies weighed 200 to 250 g. Brain membrane preparations were obtained from brain tissue of either males or females.
Rats were killed by decapitation following anesthesia with 70% CO2. Brains were removed and placed on an ice-cold platform. […] The resulting homogenate was centrifuged at 18,000× g for 20 min. and the resulting pellet was resuspended in 20 volumes of water. After 60 min. incubation at 4° C., a new pellet was collected by centrifugation at 18,000× g for 20 min. After resuspension in 10 volumes of buffer, a new final pellet was again collected by centrifugation at 18,000× g for 20 min. Prior to each centrifugation step, the suspension was incubated at 37° C. for 5 min. to promote hydrolysis of endogenous acetylcholine. The final pellet was overlayered with buffer and stored at -70° C. On the day of the assay, that pellet was thawed, resuspended in buffer and centrifuged at 18,000× g for 20 min. The pellet obtained was resuspended in buffer to a final concentration of approximately 5 mg protein/ml.
The binding of L-[^3 H]nicotine was measured using a 2 hr. incubation at 4° C. Incubations contained about 500 μg of protein and were conducted in 12 mm×75 mm polypropylene test tubes in a final incubation volume of 250 μl. The incubation buffer was Krebs-Ringers HEPES containing 200 mM TRIS buffer, pH 7.5. The binding reaction was terminated by filtration of the protein containing bound ligand onto glass fiber filters (Micro Filtration Systems) that had been soaked in buffer containing 0.5 percent polyethyleneimine. Filtration vacuum was -50 to -100 torr. Each filter was washed five times with 3 ml of ice-cold buffer. The filtration apparatus was cooled to 2° C. before use and was kept cold through the filtration process. Nonspecific binding was determined by inclusion of 10 uM nonradioactive nicotine in the incubations.
The inhibition of L-[^3 H]nicotine binding by test compounds was determined by including one of eight different concentrations of the test compound in the incubation.

[4] = rat striatal synaptosomes, % of release by equal concentration of (S)-(-)-nicotine

Row | SMILES | Ganglion Effect [1] | effects at ganglionic sites (in words) [1] | effects at muscle sites (in words) [2] | Muscle Effect [2] | EC50 ([3]; rat striatal synaptosomes) [nM] | Dopamine Release Emax [3, 4] [% nicotine] | Ki (CNS nicotinic receptors) [nM] | binding to CNS nicotinic receptors (in words) (CNS nicotinic receptors) | Dopamine Release Emax ([3]; Emax at 100 uM, % of release by (S)-(-)-nicotine) [% nicotine] | dopamine release (in words) [3]
1 | CN1C2CCC(CC2)C1c1cccnc1 (racemic) [Sample No. 6, (+/-)-2-methyl-3-(3-pyridyl)-2-azabiyclo[2.2.2]octane fumarate] | 21 | desirably low effects at muscle sites and ganglionic sites | desirably low effects at muscle sites | 30 | 2000 | 10 | 58 | good high affinity binding to CNS nicotinic receptors | – | –
2 | CN1[C@H](c2cccnc2)[C@@H]2C=C[C@H]1C2 (relative stereo) [Sample No. 10, (+/-)-endo-2-methyl-3-(3-pyridyl)-2-azabicyclo[2.2.1]hept-5-ene] | 18 | desirably low effects at muscle sites and ganglionic sites | desirably low effects at muscle sites | 25 | 86 | 44 | 3 | good high affinity binding to CNS nicotinic receptors | – | –
3 | CN1[C@H](c2cccnc2)[C@@H]2C=C[C@H]1CC2 (relative stereo) [Sample No. 3, (+/-)-endo-2-methyl-3-(3-pyridyl)-2-azabicyclo[2.2.2]oct-5-ene fumarate] | 0 | – | – | 0 | 13000 | 9 | 6360 | – | – | –
4 | COc1ccc(CN2[C@H](c3cccnc3)[C@@H]3C=C[C@H]2C3)cc1 (relative stereo) [Sample No. 8, (+/-)-endo-2-(p-methoxybenzyl)-3-(3-pyridyl)-2-azabicyclo[2.2.1]hept-5-ene] | – | desirably low effects at muscle sites and ganglionic sites | desirably low effects at muscle sites | – | > 100000 | – | 80800 | – | 15 | induce dopamine release
5 | CN1[C@H]2C=C[C@H](CC2)[C@@H]1c1cccnc1 (relative stereo) [Sample No. 4, (+/-)-Exo-2-methyl-3-(3-pyridyl)-2-azabicyclo[2.2.2]oct-5-ene fumarate] | 8 | desirably low effects at muscle sites and ganglionic sites | desirably low effects at muscle sites | 8 | 35000 | 17 | 33 | good high affinity binding to CNS nicotinic receptors | – | –
6 | CN1[C@H](c2cncc(Br)c2)[C@@H]2C=C[C@H]1C2 (relative stereo) [Sample No. 12, (+/-)-endo-2-methyl-3-[3-(5-bromopyridyl)]-2-azabicyclo[2.2.1]hept-5-ene] | 4 | – | – | 2 | 1650 | 12 | 2100 | – | – | –
7 | C1=C[C@H]2C[C@@H]1[C@@H](c1cccnc1)N2Cc1ccccc1 (relative stereo) [compound 9, (+/-)-endo-2-benzyl-3-(3-pyridyl)-2-azabicyclo[2.2.1]hept-5-ene] | 11 | desirably low effects at muscle sites and ganglionic sites | desirably low effects at muscle sites | 7 | 11000 | 30 | 141000 | – | – | induce dopamine release
8 | CN1CCC[C@H]1c1cccnc1 [Sample No. C-1, (S)-(-)-nicotine, reference compound] | – | – | – | – | – | 100 | – | – | – | –
9 | C1=C[C@H]2CC[C@@H]1[C@H](c1cccnc1)N2 (relative stereo) [Sample No. 2, (+/-)-exo-3-(3-pyridyl)-2-azabicyclo[2.2.2]oct-5-ene fumarate] | 65 | – | – | 103 | 300 | 41 | 2 | good high affinity binding to CNS nicotinic receptors | – | –
10 | CN1[C@H]2C=C[C@H](C2)[C@@H]1c1cccnc1 (relative stereo) [compound 11, (+/-)-exo-2-methyl-3-(3-pyridyl)-2-azabicyclo[2.2.1]hept-5-ene] | 55 | – | – | 7 | 90 | 58 | 9 | good high affinity binding to CNS nicotinic receptors | – | –
11 | C1=C[C@H]2CC[C@@H]1[C@@H](c1cccnc1)N2 (relative stereo) [Sample No. 1, (+/-)-endo 3-(3-pyridyl)-2-azabicyclo[2.2.2]oct-5-ene fumarate] | 12 | – | – | 69 | 550 | 14 | 476 | – | – | –
12 | O=C(O)/C=C/C(=O)O.c1cncc(C2NC3CCC2CC3)c1 (racemic) [compound 5, (+/-)-3-(3-pyridyl)-2-azabicyclo[2.2.2]octane fumarate] | 3 | desirably low effects at muscle sites and ganglionic sites | desirably low effects at muscle sites | 9 | 2550 | 4 | 35 | good high affinity binding to CNS nicotinic receptors | – | –
13 | CCN1[C@H](c2cccnc2)[C@@H]2C=C[C@H]1C2 (relative stereo) [Sample No. 7, (+/-)-endo-2-ethyl-3-(3-pyridyl)-2-azabicyclo[2.2.1]hept-5-ene] | 2 | – | – | 18 | 12900 | 22 | 7820 | – | – | –
